Data: patent US5633248A, “Amine compounds, their production and use” (priority 1994, dated 1997)
Counter-ions that a name gives are not always drawn.

Columns and labels:
[1] = target: T1, Human GnRH receptor (Homo sapiens, UniProt P30968); assay: ^125 I-leuprolerin binding inhibition, human GnRH receptor-expressed CHO cell membrane fraction; details: 25° C. for 60 minutes, read-out: GnRH-receptor binding inhibitory activity (IC50, μM) Man
T1 construct: expressed in transfected cells; host or cells: CHO (Chinese hamster ovary) cells, membrane fraction
T1 sequence (P30968 1-328): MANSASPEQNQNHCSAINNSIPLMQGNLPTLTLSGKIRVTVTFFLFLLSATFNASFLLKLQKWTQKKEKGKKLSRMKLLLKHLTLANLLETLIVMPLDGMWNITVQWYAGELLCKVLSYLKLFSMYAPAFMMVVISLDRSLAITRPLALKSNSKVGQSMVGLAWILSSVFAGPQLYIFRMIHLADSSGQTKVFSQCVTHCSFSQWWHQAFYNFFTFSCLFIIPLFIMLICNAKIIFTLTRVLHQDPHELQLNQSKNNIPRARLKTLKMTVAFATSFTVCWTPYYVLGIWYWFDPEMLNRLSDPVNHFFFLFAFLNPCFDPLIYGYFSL
Description: A tube was filled with 10 μl of an aqueous solution of leuprolerin (3×10^4 M) and lactoperoxidase (0.01 mg/ml) followed by addition of 10 μl of Na^125 I solution (37 MBq). After stirring, 10 μl of 0.001% H2 O2 was added and the reaction was conducted at room temperature for 20 minutes. The reaction was stopped by adding 700 μl of 0.05% TFA and the reaction mixture was subjected to reversed-phase HPLC under the conditions set forth below. ^125 I-leuprolerin was eluted with a retention time of 26-27 minutes. […] To the sediment was added 10 ml of a cell homogenate buffer (10 mM NaHCO3, 5 mM EDTA, pH 7.5) and the mixture was homogenized using a Polytron homogenizer. The homogenate was centrifuged at 400 xg for 15 minutes and the supernatant was transferred to an ultracentrifuge cuvette and centrifuged at 100,000 xg for 1 hour to prepare a membrane fraction pellet. This pellet was suspended in 2 ml of the assay buffer and further centrifuged at 100,000 xg for 1 hour. The membrane fraction recovered as a pellet was resuspended in 20 ml of the assay buffer, distributed into vials, preserved at -80° C., and reconstituted before use. The rat and human membrane fractions prepared under (B) and (D) were respectively diluted with the assay buffer to make 200 μg/ml each and 188 μl aliquots of each dilution were distributed into tubes. The bovine membrane fraction prepared under (C) was diluted with the assay buffer to make 750 μg/ml and 188 μl aliquots of the dilution were distributed into tubes. When the rat anterior pituitary membrane fraction was used, 2 μl of 0.1 mM compound/60% dimethyl sulfoxide (DMSO) and 10 μl of 38 nM ^125 I-leuprolerin were concurrently added. […] For determination of maximum binding, a reaction mixture was prepared by adding 2 μl of 60% DMSO and 10 μl of 38 nM ^125 I-leuprolerin. For determination of non-specific binding, a reaction mixture was prepared using 2 μl of 100 μM leuprolerin/60% DMSO and 10 μl of […] ^125 I-leuprolerin. When the rat and bovine anterior pituitary membrane fractions were used, each reaction was carried out at 4° C. for 90 minutes. On the other hand, when the human GnRH receptor-expressed CHO cell membrane fraction was used, the reaction was conducted at 25° C. for 60 minutes. After completion of the reaction, the reaction mixture was suction-filtered through a polyethyleneimine-treated Whatman glass filter (GF-F) [trademark;whatman]. After filtration, the radioactivity of the residual ^125 I-leuprolerin on the filter was measured using a γ-counter. The computation formula of (TB-SB)/(TB-NSB)×100 (SB=radioactivity bound in the presence of the test compound, TB=maximum amount of radioactivity bound, NSB=amount of radioactivity nonspecifically bound) was calculated to find the binding inhibition rate for the test compound. Moreover, the inhibition rate was determined by varying the concentration of each test compound and the concentration of the compound causing 50% inhibition of binding (IC50 value) was calculated by Hill plot.

[2] = target: T2, Rat GnRH Receptor (Rattus norvegicus, UniProt P30969); assay: ^125 I-leuprolerin binding inhibition, rat anterior pituitary membrane fraction; parameters: species or system rat (Wistar); details: 4° C. for 90 minutes, read-out: GnRH-receptor binding inhibitory activity (IC50, μM) Rat
T2 construct: from tissue; host or cells: anterior pituitary of male Wistar rats (8 weeks old), membrane fraction
T2 sequence (P30969 1-327): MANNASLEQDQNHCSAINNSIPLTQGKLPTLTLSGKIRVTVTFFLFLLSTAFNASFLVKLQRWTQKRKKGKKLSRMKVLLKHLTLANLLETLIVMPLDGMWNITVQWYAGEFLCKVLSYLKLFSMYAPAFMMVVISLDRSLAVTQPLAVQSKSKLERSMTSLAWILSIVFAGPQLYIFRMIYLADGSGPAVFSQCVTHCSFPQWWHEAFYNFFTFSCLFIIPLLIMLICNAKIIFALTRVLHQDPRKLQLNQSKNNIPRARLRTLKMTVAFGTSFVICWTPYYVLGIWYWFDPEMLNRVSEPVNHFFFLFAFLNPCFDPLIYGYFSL
Description: A tube was filled with 10 μl of an aqueous solution of leuprolerin (3×10^4 M) and lactoperoxidase (0.01 mg/ml) followed by addition of 10 μl of Na^125 I solution (37 MBq). After stirring, 10 μl of 0.001% H2 O2 was added and the reaction was conducted at room temperature for 20 minutes. The reaction was stopped by adding 700 μl of 0.05% TFA and the reaction mixture was subjected to reversed-phase HPLC under the conditions set forth below. ^125 I-leuprolerin was eluted with a retention time of 26-27 minutes. Forty rats (8 weeks old, male) of Wistar strain were decapitated under no anesthesia and the anterior pituitary isolated from each animal was washed with an ice-cooled homogenate buffer (25 mM Tris (tris(hydroxylmethyl)aminomethane)-HCl, 0.3M sucrose, 1 mM EGTA (ethylene-bis(oxyethylenenitrilo)tetraacetic acid), 0.25 mM PMSF (phenylmethylsulfonyl fluoride), 10 U/ml aprotinin, 1 μg/ml pepstatin, 20 μg/ml leupeptin, 100 μg/ml phosphoramidon, 0.03% sodium azide; pH 7.5). The anterior pituitary was suspended in 2 ml of the same homogenate buffer as above and homogenized using a Polytron homogenizer. The homogenate thus prepared was centrifuged at 700 xg for 15 minutes and the supernatant was transferred to an ultracentrifuge cuvette and further centrifuged at 100,000 xg for 1 hour to provide a membrane fraction pellet. This pellet was suspended in 2 ml of an assay buffer (25 mM Tris-HCl, 1 mM ethylenediaminetetraacetic acid (EDTA), 0.1% bovine serum albumin (BSA), 0.25 mM PMSF, 1 μg/ml pepstatin, 20 μg/ml leupeptin, 100 μg/ml phosphoramidon, 0.03% sodium azide; pH 7.5) and centrifuged at 100,000 xg for 1 hour. The membrane fraction recovered as a pellet was resuspended in 10 ml of the same assay buffer as above, distributed into vials, preserved at -80° C., and reconstituted before use. The rat and human membrane fractions prepared under (B) and (D) were respectively diluted with the assay buffer to make 200 μg/ml each and 188 μl aliquots of each dilution were distributed into tubes. The bovine membrane fraction prepared under (C) was diluted with the assay buffer to make 750 μg/ml and 188 μl aliquots of the dilution were distributed into tubes. When the rat anterior pituitary membrane fraction was used, 2 μl of 0.1 mM compound/60% dimethyl sulfoxide (DMSO) and 10 μl of 38 nM ^125 I-leuprolerin were concurrently added. […] For determination of maximum binding, a reaction mixture was prepared by adding 2 μl of 60% DMSO and 10 μl of 38 nM ^125 I-leuprolerin. For determination of non-specific binding, a reaction mixture was prepared using 2 μl of 100 μM leuprolerin/60% DMSO and 10 μl of […] ^125 I-leuprolerin. When the rat and bovine anterior pituitary membrane fractions were used, each reaction was carried out at 4° C. for 90 minutes. On the other hand, when the human GnRH receptor-expressed CHO cell membrane fraction was used, the reaction was conducted at 25° C. for 60 minutes. After completion of the reaction, the reaction mixture was suction-filtered through a polyethyleneimine-treated Whatman glass filter (GF-F) [trademark;whatman]. After filtration, the radioactivity of the residual ^125 I-leuprolerin on the filter was measured using a γ-counter. The computation formula of (TB-SB)/(TB-NSB)×100 (SB=radioactivity bound in the presence of the test compound, TB=maximum amount of radioactivity bound, NSB=amount of radioactivity nonspecifically bound) was calculated to find the binding inhibition rate for the test compound. Moreover, the inhibition rate was determined by varying the concentration of each test compound and the concentration of the compound causing 50% inhibition of binding (IC50 value) was calculated by Hill plot.

Row | Structure (SMILES) | IC50 [1] | IC50 [2]
1 | COc1cc2c(cc1OC)CC1(CCCCN1CCCC(CCCNC(=O)Cc1ccc(F)cc1)(c1ccccc1)c1ccccc1)CC2 (stereo not shown) [II-50, 3,4-Dihydro-6,7-dimethoxy-1'-{4,4-diphenyl-7-[(4-fluorophenylacetyl)amino]heptyl}spiro[naphthalene-2(1H),2'-piperidine] hydrochloride] | 0.08 µM | 0.0007 µM
2 | COc1ccc(CC(=O)NCCCC(CCCN2CCCCC23CCc2cc(OC)c(OC)cc2C3)(c2ccccc2)c2ccccc2)cc1 (stereo not shown) [II-58, 3,4-Dihydro-6,7-dimethoxy-1'-{4,4-diphenyl-7-[(4-methoxyphenylacetyl)amino]heptyl}spiro[naphthalene-2(1H),2'-piperidine] hydrochloride] | 0.11 µM | 0.0016 µM
3 | COc1cc2c(cc1OC)CC1(CCCCN1CCCC(CCCNC(=O)Cc1ccc(Cl)cc1)(c1ccccc1)c1ccccc1)CC2 (stereo not shown) [II-51, 3,4-Dihydro-6,7-dimethoxy-1'-{4,4-diphenyl-7-[(4-chlorophenylacetyl)amino]heptyl}spiro[naphthalene-2(1H),2'-piperidine] hydrochloride] | 0.08 µM | 0.002 µM
4 | COc1ccc(CCC(=O)NCCCC(CCCN2CCCCC23CCc2cc(OC)c(OC)cc2C3)(c2ccccc2)c2ccccc2)cc1 (stereo not shown) [II-65, 3,4-Dihydro-6,7-dimethoxy-1'-{4,4-diphenyl-7-{[3-(4-methoxyphenyl)propionyl]amino}heptyl}spiro[naphthalene-2(1H),2'-piperidine] hydrochloride] | 0.02 µM | 0.001 µM
5 | COc1cc2c(cc1OC)CC1(CCCCN1CCCC(CCCNC(=O)Cc1cccc3ccccc13)(c1ccccc1)c1ccccc1)CC2 (stereo not shown) [II-66, 3,4-Dihydro-6,7-dimethoxy-1'-{4,4-diphenyl-7-[(1-naphthylacetyl)amino]heptyl}spiro[naphthalene-2(1H),2'-piperidine] hydrochloride] | 0.3 µM | 0.003 µM
